# Numbered stars: 1 amine (or outer) side, 2 acyl side, 3 side chain; on linkers, the order of the positions; unused ones are H or OH. Bridge positions count the residues as written; N and C are the ends. Square brackets hold non-standard residues; d marks the D form. Peptide text beside a SMILES is read from it. * marks the point of attachment. ξ: configuration not given here. X29 = O=C([C@H](Cc1ccc(-c2cc(F)cc(F)c2)cc1)N[*:1])[*:2]; Phe(4-COOH) = N[C@@H](Cc1ccc(C(=O)O)cc1)C(=O)O; Bip = N[C@@H](Cc1ccc(-c2ccccc2)cc1)C(=O)O; Phe(3-Me) = Cc1cccc(C[C@H](N)C(=O)O)c1; dPhe(3-F) = N[C@H](Cc1cccc(F)c1)C(=O)O; hTyr = N[C@@H](CCc1ccc(O)cc1)C(=O)O; 4Pal = N[C@@H](Cc1ccncc1)C(=O)O; Cha = N[C@@H](CC1CCCCC1)C(=O)O; Cit = NC(=O)NCCC[C@H](N)C(=O)O; Ile(3ξ) = CCC(C)[C@H](N)C(=O)O; NMeNle = CCCC[C@H](NC)C(=O)O; Hpra = C#CCC[C@H](N)C(=O)O; Carboxymethyl = O=C(O)C*; NMeA = CN[C@@H](C)C(=O)O; Nle = CCCC[C@H](N)C(=O)O; Orn = NCCC[C@H](N)C(=O)O; Dab = NCC[C@H](N)C(=O)O; Dap = NC[C@H](N)C(=O)O; ξC = NC(CS)C(=O)O
# Target: T1, PE-labeled human PD-L1-Ig binding to Jurkat cell line over-expressing human PD-1 (Jurkat-PD-1) (Homo sapiens, UniProt Q15116)
# T1 construct: expressed in transfected cells; host or cells: Jurkat
# Test: Jurkat-PD-1 Cell Binding High-Content Screening Assay (CBA): Method 1
# Details: Jurkat-hPD-1 cells, PE-labeled PD-L1-Ig 20 nM final; read-out: Jurkat HPDL1 PD1 IC50 (uM) (Method 1)
# T1 sequence (Q15116 25-288): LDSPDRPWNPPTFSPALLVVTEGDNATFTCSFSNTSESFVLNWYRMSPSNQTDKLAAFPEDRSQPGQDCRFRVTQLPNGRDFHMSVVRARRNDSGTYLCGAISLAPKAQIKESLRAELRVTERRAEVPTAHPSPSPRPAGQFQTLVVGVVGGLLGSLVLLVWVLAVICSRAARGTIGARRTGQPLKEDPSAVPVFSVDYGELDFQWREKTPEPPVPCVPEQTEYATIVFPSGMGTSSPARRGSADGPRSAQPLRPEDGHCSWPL
row,SMILES,IC50
1,CC(C)C[C@@H]1NC(=O)[C@H](CCCNC(=N)N)NC(=O)[C@@H](CC(C)C)NC(=O)[C@H](C)N(C)C(=O)[C@H](CCCNC(=N)N)NC(=O)[C@H](Cc2ccc(-c3cc(F)cc(F)c3)cc2)NC(=O)[C@H](C(C)C)NC(=O)[C@H](Cc2c[nH]c3ccccc23)NC(=O)[C@H](CC(=O)O)NC(=O)[C@H](Cc2ccc(O)cc2)NC(=O)[C@H](Cc2ccccc2)NC(=O)CSC[C@@H](C(=O)N[C@@H](C)C(N)=O)NC(=O)[C@H]([C@@H](C)O)NC(=O)[C@H](C(C)C)NC1=O [Compound 1068] ({CH2CO}-FYDWV[X29]R[NMeA][dL]RLVTCA-NH2; thioether N-14),0.17 µM
2,CC(C)C[C@H]1NC(=O)[C@H](C)N(C)C(=O)[C@H](CCCNC(N)=O)NC(=O)[C@H](Cc2ccc(-c3ccccc3)cc2)NC(=O)[C@H](C(C)C)NC(=O)[C@H](Cc2c[nH]c3ccccc23)NC(=O)[C@H](CC(=O)O)NC(=O)[C@H](Cc2ccc(O)cc2)NC(=O)[C@H](CC(N)=O)NC(=O)CSC[C@@H](C(=O)N[C@@H](C)C(N)=O)NC(=O)[C@H]([C@@H](C)O)NC(=O)[C@H](C(C)C)NC(=O)[C@H](CC2CCCCC2)NC(=O)[C@H](CCCNC(=N)N)NC1=O [Compound 1304] ({CH2CO}-NYDWV[Bip][Cit][NMeA][dL]R[Cha]VTCA-NH2; thioether N-14),0.02 µM
3,CC(C)C[C@@H]1NC(=O)[C@H](CCCNC(=N)N)NC(=O)[C@@H](Cc2cccc(F)c2)NC(=O)[C@H](C)N(C)C(=O)[C@H](CCCNC(=N)N)NC(=O)[C@H](Cc2ccc(-c3ccccc3)cc2)NC(=O)[C@H](C(C)C)NC(=O)[C@H](Cc2c[nH]c3ccccc23)NC(=O)[C@H](CC(=O)O)NC(=O)[C@H](Cc2ccc(O)cc2)NC(=O)[C@H](Cc2ccccc2)NC(=O)CSC[C@@H](C(=O)N[C@@H](C)C(N)=O)NC(=O)[C@H]([C@@H](C)O)NC(=O)[C@H](C(C)C)NC1=O [Compound 1071] ({CH2CO}-FYDWV[Bip]R[NMeA][dPhe(3-F)]RLVTCA-NH2; thioether N-14),0.13 µM
4,CC(C)C[C@@H]1NC(=O)[C@H](Cc2c[nH]c3ccccc23)NC(=O)[C@H](CC(=O)O)NC(=O)[C@H](Cc2ccc(O)cc2)NC(=O)[C@H](CC(N)=O)NC(=O)CSC[C@@H](C(=O)N[C@@H](C)C(N)=O)NC(=O)[C@H](CO)NC(=O)[C@H](C(C)C)NC(=O)[C@H](CC(C)C)NC(=O)[C@H](CCN)NC(=O)[C@@H](C)NC(=O)[C@H](C)N(C)C(=O)[C@H](CCCNC(=N)N)NC(=O)[C@H](Cc2ccc(-c3ccccc3)cc2)NC1=O [Compound 1758] ({CH2CO}-NYDWL[Bip]R[NMeA][dA][Dab]LVSCA-NH2; thioether N-14),0.03 µM
5,CCCC[C@@H]1NC(=O)[C@H](Cc2ccc(-c3ccccc3)cc2)NC(=O)[C@H](C(C)C)NC(=O)[C@H](Cc2c[nH]c3ccccc23)NC(=O)[C@H](CC(=O)O)NC(=O)[C@H](Cc2ccc(C(=O)O)cc2)NC(=O)[C@H](Cc2ccncc2)NC(=O)CSC[C@@H](C(=O)N[C@@H](CC(N)=O)C(N)=O)NC(=O)[C@H](CO)NC(=O)[C@H](C(C)C)NC(=O)[C@H](CC2CCCCC2)NC(=O)[C@H](CCN)NC(=O)[C@@H](C)NC(=O)[C@H](CCCC)N(C)C1=O [Compound 2089] ({CH2CO}-[4Pal][Phe(4-COOH)]DWV[Bip][Nle][NMeNle][dA][Dab][Cha]VSCN-NH2; thioether N-14),0.05 µM
6,CC(C)C[C@@H]1NC(=O)[C@H](CCCNC(=N)N)NC(=O)[C@@H](Cc2ccccc2)NC(=O)[C@H](C)N(C)C(=O)[C@H](CCCNC(=N)N)NC(=O)[C@H](Cc2ccc(-c3ccccc3)cc2)NC(=O)[C@H](C(C)C)NC(=O)[C@H](Cc2c[nH]c3ccccc23)NC(=O)[C@H](CC(=O)O)NC(=O)[C@H](Cc2ccc(O)cc2)NC(=O)[C@H](CC(N)=O)NC(=O)CSC[C@@H](C(=O)N[C@@H](C)C(N)=O)NC(=O)[C@H](CO)NC(=O)[C@H](C(C)C)NC1=O [Compound 1042] ({CH2CO}-NYDWV[Bip]R[NMeA][dF]RLVSCA-NH2; thioether N-14),0.04 µM
7,CC[C@H](C)[C@@H]1NC(=O)[C@H](Cc2ccc(-c3ccccc3)cc2)NC(=O)[C@H](C(C)C)NC(=O)[C@H](Cc2c[nH]c3ccccc23)NC(=O)[C@H](CC(=O)O)NC(=O)[C@H](Cc2ccc(O)cc2)NC(=O)[C@H](CC(N)=O)NC(=O)CSC[C@@H](C(=O)N[C@@H](C)C(N)=O)NC(=O)[C@H](CO)NC(=O)[C@H](C(C)C)NC(=O)[C@H](CC(C)C)NC(=O)[C@H](CCCCN)NC(=O)[C@@H](CC(C)C)NC(=O)[C@H](C)N(C)C1=O [Compound 1480] ({CH2CO}-NYDWV[Bip]I[NMeA][dL]KLVSCA-NH2; thioether N-14),0.04 µM
8,CC(C)C[C@@H]1NC(=O)[C@H](CCN)NC(=O)[C@@H](CC(C)C)NC(=O)[C@H](C)N(C)C(=O)[C@H](CCCNC(=N)N)NC(=O)[C@H](Cc2ccc(-c3ccccc3)cc2)NC(=O)[C@H](C(C)C)NC(=O)[C@H](Cc2c[nH]c3ccccc23)NC(=O)[C@H](CC(=O)O)NC(=O)[C@H](CCc2ccc(O)cc2)NC(=O)[C@H](CC(N)=O)NC(=O)CSC[C@@H](C(=O)N[C@@H](C)C(N)=O)NC(=O)[C@H]([C@@H](C)O)NC(=O)[C@H](C(C)C)NC1=O [Compound 1354] ({CH2CO}-N[hTyr]DWV[Bip]R[NMeA][dL][Dab]LVTCA-NH2; thioether N-14),0.02 µM
9,C#CCC[C@H](NC(=O)[C@H](CCCN)NC(=O)[C@@H]1CSCC(=O)N[C@@H](Cc2ccncc2)C(=O)N[C@@H](Cc2ccc(OCC(=O)O)cc2)C(=O)N[C@@H](CC(=O)O)C(=O)N[C@@H](Cc2cccc(C)c2)C(=O)N[C@@H](C(C)C)C(=O)N[C@@H](Cc2ccc(-c3ccccc3)cc2)C(=O)N[C@@H](C(C)C)C(=O)N(C)[C@@H](C)C(=O)N[C@H](CC(C)C)C(=O)N[C@@H](CCN)C(=O)N[C@@H](CC2CCCCC2)C(=O)N[C@@H](C(C)C)C(=O)N[C@@H]([C@@H](C)O)C(=O)N1)C(N)=O [Compound 1878] ({CH2CO}-[4Pal]Y(Carboxymethyl)D[Phe(3-Me)]V[Bip]V[NMeA][dL][Dab][Cha]VTC[Orn][Hpra]-NH2; thioether N-14),0.01 µM
10,CC(C)C[C@@H]1NC(=O)[C@H](Cc2c[nH]c3ccccc23)NC(=O)[C@H](CC(=O)O)NC(=O)[C@H](Cc2ccc(O)cc2)NC(=O)[C@H](Cc2ccccc2)NC(=O)CSC[C@@H](C(=O)NCC(N)=O)NC(=O)[C@H](CO)NC(=O)[C@H](C(C)C)NC(=O)[C@H](CC(C)C)NC(=O)[C@H](CC(N)=O)NC(=O)[C@H](CO)NC(=O)[C@H](C)N(C)C(=O)[C@H](C(C)C)NC(=O)[C@H](Cc2ccc(-c3ccccc3)cc2)NC1=O [Compound 1007] ({CH2CO}-FYDWL[Bip]V[NMeA]SNLVSCG-NH2; thioether N-14),0.26 µM

# Further compounds by falling IC50, results first:
row,IC50,SMILES
1,0.05 µM,CC(C)C[C@@H]1NC(=O)[C@H](Cc2c[nH]c3ccccc23)NC(=O)[C@H](CC(=O)O)NC(=O)[C@H](Cc2ccncc2)NC(=O)[C@H](Cc2ccc(OCC(=O)O)cc2)NC(=O)CSC[C@@H](C(=O)N[C@@H](CC(N)=O)C(N)=O)NC(=O)[C@H](CO)NC(=O)[C@H](C(C)C)NC(=O)[C@H](CC2CCCCC2)NC(=O)[C@H](CCN)NC(=O)[C@@H](CC(C)C)NC(=O)[C@H](C)N(C)C(=O)[C@H](Cc2ccc(O)cc2)NC(=O)[C@H](Cc2ccc(-c3ccccc3)cc2)NC1=O [Compound 1906] ({CH2CO}-Y(Carboxymethyl)[4Pal]DWL[Bip]Y[NMeA][dL][Dab][Cha]VSCN-NH2; thioether N-14)
2,0.03 µM,CC(C)C[C@@H]1NC(=O)[C@H](CCN)NC(=O)[C@@H](CC(C)C)NC(=O)[C@H](C)N(C)C(=O)[C@H](CCCN)NC(=O)[C@H](Cc2ccc(-c3ccccc3)cc2)NC(=O)[C@H](C(C)C)NC(=O)[C@H](Cc2c[nH]c3ccccc23)NC(=O)[C@H](CC(=O)O)NC(=O)[C@H](Cc2ccc(O)cc2)NC(=O)[C@H](CC(N)=O)NC(=O)CSC[C@@H](C(=O)N[C@@H](C)C(N)=O)NC(=O)[C@H]([C@@H](C)O)NC(=O)[C@H](C(C)C)NC1=O [Compound 1266] ({CH2CO}-NYDWV[Bip][Orn][NMeA][dL][Dab]LVTCA-NH2; thioether N-14)
3,0.03 µM,CC(C)C[C@@H]1NC(=O)[C@H](Cc2c[nH]c3ccccc23)NC(=O)[C@H](CC(=O)O)NC(=O)[C@H](Cc2ccc(O)cc2)NC(=O)[C@H](Cc2ccccc2)NC(=O)CSC[C@@H](C(=O)N[C@@H](C)C(N)=O)NC(=O)[C@H](CO)NC(=O)[C@H](CCCN)NC(=O)[C@H](CC(C)C)NC(=O)[C@H](CC(N)=O)NC(=O)[C@@H](C)NC(=O)[C@H](C)N(C)C(=O)[C@H](C(C)C)NC(=O)[C@H](Cc2ccc(-c3ccccc3)cc2)NC1=O [Compound 1530] ({CH2CO}-FYDWL[Bip]V[NMeA][dA]NL[Orn]SCA-NH2; thioether N-14)
4,0.01 µM,CC(C)C[C@@H]1NC(=O)[C@H](Cc2c[nH]c3ccccc23)NC(=O)[C@H](CC(=O)O)NC(=O)[C@H](Cc2ccc(O)cc2)NC(=O)[C@H](Cc2ccccc2)NC(=O)CSC[C@@H](C(=O)NCC(N)=O)NC(=O)[C@H](CO)NC(=O)[C@H](C(C)C)NC(=O)[C@H](CC(C)C)NC(=O)[C@H](CCN)NC(=O)[C@@H](CC(C)C)NC(=O)[C@H](C)N(C)C(=O)[C@H](C(C)C)NC(=O)[C@H](Cc2ccc(-c3ccccc3)cc2)NC1=O [Compound 1472] ({CH2CO}-FYDWL[Bip]V[NMeA][dL][Dab]LVSCG-NH2; thioether N-14)
5,0.01 µM,CCC(C)[C@@H]1NC(=O)[C@H](Cc2ccc(-c3ccccc3)cc2)NC(=O)[C@H](C(C)C)NC(=O)[C@H](Cc2cccc(C)c2)NC(=O)[C@H](CC(=O)O)NC(=O)[C@H](Cc2ccc(OCC(=O)O)cc2)NC(=O)[C@H](Cc2ccncc2)NC(=O)CSCC(C(=O)N[C@@H](CCC(=O)O)C(=O)N[C@@H](CN)C(=O)O)NC(=O)[C@H](CO)NC(=O)[C@H](C(C)C)NC(=O)[C@H](CC2CCCCC2)NC(=O)[C@H](CC(N)=O)NC(=O)[C@@H](CC(C)C)NC(=O)[C@H](C)N(C)C1=O (stereo partly drawn) [Compound 2007] ({CH2CO}-[4Pal]Y(Carboxymethyl)D[Phe(3-Me)]V[Bip][Ile(3ξ)][NMeA][dL]N[Cha]VS[ξC]E[Dap]-OH; thioether N-14)

# From patent publication US20240409585A1, “MACROCYCLIC IMMUNOMODULATORS” (priority 2021, published 2024)
